In patent publication US7109193B2, “Tricyclic diazepines tocolytic oxytocin receptor antagonists” (Wyeth, priority 2001, dated 2006):
Blank lines part the entries; values can stand above or below the compound they belong to.

Target: T1, human oxytocin receptor (Homo sapiens, UniProt P30559)
T1 construct: host or cells: CHO cells (pcDNA3.1 vector)
T1 sequence (P30559 1-389): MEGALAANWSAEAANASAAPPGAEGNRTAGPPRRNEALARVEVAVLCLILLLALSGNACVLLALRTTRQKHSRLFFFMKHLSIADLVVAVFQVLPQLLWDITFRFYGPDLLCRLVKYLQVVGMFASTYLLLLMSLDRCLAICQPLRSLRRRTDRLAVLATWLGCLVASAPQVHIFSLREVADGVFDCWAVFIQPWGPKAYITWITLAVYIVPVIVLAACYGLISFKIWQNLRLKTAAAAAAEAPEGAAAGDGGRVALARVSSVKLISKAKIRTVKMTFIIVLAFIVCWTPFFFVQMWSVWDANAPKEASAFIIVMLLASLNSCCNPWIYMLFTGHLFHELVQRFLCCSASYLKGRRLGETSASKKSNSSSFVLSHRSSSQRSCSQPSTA
Experiment: Oxytocin binding in Chinese Hamster Ovary cell membranes expressing human oxytocin receptors
Conditions: 100 nM, CHO cell membranes, [3H]oxytocin, values without parentheses, read-out: OT % inhibition @ 100% nM

SMILES: CN1CCCN(C(=O)c2ccc3n2Cc2ccccc2N(C(=O)c2ccc(-c4cccc5ccccc45)cc2Cl)C3)CC1 [Example 71, {10-[2-Chloro-4-(1-naphthyl)benzoyl]-10,11-dihydro-5H-pyrrolo[2,1-c][1,4]benzodiazepin-3-yl}(4-methyl-1,4-diazepan-1-yl)methanone]
inhibition at 0.1 µM: 25%

SMILES: CC(C)N1CCN(C(=O)c2ccc3n2Cc2ccccc2N(C(=O)c2ccc(-c4cccc5ccccc45)cc2Cl)C3)CC1 [Example 243, {10-[2-Chloro-4-(1-naphthyl)benzoyl]-10,11-dihydro-5H-pyrrolo[2,1-c][1,4]benzodiazepin-3-yl}(4-isopropyl-1-piperazinyl)methanone]
inhibition at 0.1 µM: 17%

SMILES: COc1cccc(-c2cc(OC)c(C(=O)N3Cc4ccc(C(=O)N5CCN(CCCN(C)C)CC5)n4Cc4ccccc43)cc2Cl)c1 [Example 252, {10-[(6-Chloro-3,3′-dimethoxy[1,1′-biphenyl]-4-yl)carbonyl]-10,11-dihydro-5H-pyrrolo[2,1-c][1,4]benzodiazepin-3-yl}{4-[3-(dimethylamino)propyl]-1-piperazinyl}methanone]
inhibition at 0.1 µM: 72%

SMILES: Cc1cc(C(=O)N2Cc3ccc(C(=O)n4ccnc4)n3Cc3ccccc32)ccc1-c1ccccc1C(F)(F)F [Example 294, 1H-Imidazol-1-yl(10-{[2-methyl-2′-(trifluoromethyl)[1,1′-biphenyl]-4-yl]carbonyl}-10,11-dihydro-5H-pyrrolo[2,1-c][1,4]benzodiazepin-3-yl)methanone]
inhibition at 0.1 µM: 54%

SMILES: COc1ccccc1-c1ccc(C(=O)N2Cc3ccc(C(=O)N[C@H]4CN5CCC4CC5)n3Cc3ccccc32)cc1C [Example 298, N-[(3R)-1-Azabicyclo[2.2.2]oct-3-yl]-10-[(2′-methoxy-2-methyl[1,1′-biphenyl]-4-yl)carbonyl]-10,11-dihydro-5H-pyrrolo[2,1-c][1,4]benzodiazepine-3-carboxamide]
inhibition at 0.1 µM: 94%

Now from value to compound:

inhibition at 0.1 µM: 7%
SMILES: COc1cc(C(=O)N2Cc3ccc(C(=O)NCCCN(C)C)n3Cc3ccccc32)ccc1-n1c(C)ccc1C [Example 308, N-[3-(Dimethylamino)propyl]-10-[4-(2,5-dimethyl-1H-pyrrol-1-yl)-3-methoxybenzoyl]-10,11-dihydro-5H-pyrrolo[2,1-c][1,4]benzodiazepine-3-carboxamide]

inhibition at 0.1 µM: 97%
SMILES: Cc1ccccc1-c1ccc(C(=O)N2Cc3ccc(C(=O)N4CCN(CCCN(C)C)CC4)n3Cc3ccccc32)cc1C [Example 247, {4-[3-(Dimethylamino)propyl]-1-piperazinyl}{10-[(2,2′-dimethyl[1,1′-biphenyl]-4-yl)carbonyl]-10,11-dihydro-5H-pyrrolo[2,1-c][1,4]benzodiazepin-3-yl}methanone]

inhibition at 0.1 µM: 80%
SMILES: COc1cccc(-c2ccc(C(=O)N3Cc4ccc(C(=O)N5CCN(CCCN(C)C)CC5)n4Cc4ccccc43)cc2OC)c1 [Example 255, {10-[(2,3′-Dimethoxy[1,1′-biphenyl]-4-yl)carbonyl]-10,11-dihydro-5H-pyrrolo[2,1-c][1,4]benzodiazepin-3-yl}{4-[3-(dimethylamino)propyl]-1-piperazinyl}methanone]

inhibition at 0.1 µM: 16%
SMILES: COc1cc(C(=O)N2Cc3ccc(C(=O)NCCCn4ccnc4)n3Cc3ccccc32)ccc1-n1c(C)ccc1C [Example 312, 10-[4-(2,5-Dimethyl-1H-pyrrol-1-yl)-3-methoxybenzoyl]-N-[3-(1H-imidazol-1-yl)propyl]-10,11-dihydro-5H-pyrrolo[2,1-c][1,4]benzodiazepine-3-carboxamide]

inhibition at 0.1 µM: 32%
SMILES: COc1cc(C(=O)N2Cc3ccc(C(=O)N4CCC(N5CCCC5)CC4)n3Cc3ccccc32)ccc1-n1c(C)ccc1C [Example 313, {10-[4-(2,5-Dimethyl-1H-pyrrol-1-yl)-3-methoxybenzoyl]-10,11-dihydro-5H-pyrrolo[2,1-c][1,4]benzodiazepin-3-yl}[4-(1-pyrrolidinyl)-1-piperidinyl]methanone]

inhibition at 0.1 µM: 62%
SMILES: COc1cc(-c2ccccc2C)c(Cl)cc1C(=O)N1Cc2ccc(C(=O)NCCCN(C)C)n2Cc2ccccc21 [Example 78, 10-[(6-Chloro-3-methoxy-2′-methyl[1,1′-biphenyl]-4-yl)carbonyl]-N-[3-(dimethylamino)propyl]-10,11-dihydro-5H-pyrrolo[2,1-c][1,4]benzodiazepine-3-carboxamide]
